Measured values taken from paper PMC6484527 (Slas Discovery, 2018).
Where two headings read alike, the source gives them in different places.

What was measured:
B-Raf [1] = molecular target: T1, B-Raf (Homo sapiens, UniProt P15056, V600E); experiment: cell-based; assay type: cell-based; details: for EC50: B-Raf ITDRFCETSA pEC50, 2 h incubation with live A375 cells, mean ± standard deviation of ⩾3 technical repeats
B-Raf [2] = molecular target: T1, B-Raf; experiment: B-Raf CETSA HT single-concentration screen of kinase inhibitor library; assay type: cell-based; details: 30 µM, 2 h incubation with live A375 cells, 49 °C heatshock, two technical repeats
purified B-Raf protein = purified B-Raf protein (Homo sapiens, UniProt P15056); experiment: Differential scanning fluorimetry with purified B-Raf protein; assay type: binding; details: same concentration (30 µM); data not shown
Chain of purified B-Raf protein (P15056 whole entry): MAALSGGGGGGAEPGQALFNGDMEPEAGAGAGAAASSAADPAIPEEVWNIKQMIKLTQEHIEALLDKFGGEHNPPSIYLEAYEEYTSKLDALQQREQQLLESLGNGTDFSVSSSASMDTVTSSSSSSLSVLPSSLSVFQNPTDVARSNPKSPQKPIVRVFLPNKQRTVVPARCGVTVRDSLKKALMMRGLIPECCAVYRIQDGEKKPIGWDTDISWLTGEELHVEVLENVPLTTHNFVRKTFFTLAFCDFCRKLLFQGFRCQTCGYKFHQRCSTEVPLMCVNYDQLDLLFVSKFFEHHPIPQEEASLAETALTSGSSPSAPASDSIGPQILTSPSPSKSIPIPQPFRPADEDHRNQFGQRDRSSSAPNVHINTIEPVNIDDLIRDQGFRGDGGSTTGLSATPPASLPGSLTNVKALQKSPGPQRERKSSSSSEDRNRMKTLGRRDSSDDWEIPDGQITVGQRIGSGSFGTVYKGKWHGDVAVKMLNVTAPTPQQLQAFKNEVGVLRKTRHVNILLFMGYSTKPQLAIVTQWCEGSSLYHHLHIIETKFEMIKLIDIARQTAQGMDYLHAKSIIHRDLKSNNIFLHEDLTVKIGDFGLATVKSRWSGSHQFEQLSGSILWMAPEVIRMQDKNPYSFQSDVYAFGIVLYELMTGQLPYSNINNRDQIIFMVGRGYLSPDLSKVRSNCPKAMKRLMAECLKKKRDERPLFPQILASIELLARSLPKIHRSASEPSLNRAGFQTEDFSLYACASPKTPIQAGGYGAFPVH

[3] = A375 cells, at least three technical repeats

T1 sequence (P15056 whole entry V600E): as the sequence (P15056 whole entry) above, with V600E counted along it

Row | B-Raf ITDRFCETSA activity (in words) (B-Raf [1]; [3]) | Thermal stabilization of B-Raf in CETSA HT screen (hit call) (B-Raf [2]) | B-Raf ITDRFCETSA activity (in words) (B-Raf [1]) | SMILES | also measured
1 | clear evidence of target engagement | – | – | Cc1ccc(NC(=O)c2cccc(C(C)(C)C#N)c2)cc1Nc1ccc2ncn(C)c(=O)c2c1 [AZ628] | –
2 | – | hits | – | COc1cc2ncnc(Oc3cccc(NC(=O)Nc4cc(C(C)(C)C(F)(F)F)on4)c3)c2cc1OC [CEP-32496] | –
3 | weak activity | – | – | CNS(=O)(=O)Nc1nccc(Cc2c(C)c3ccc(Oc4ncccn4)cc3oc2=O)c1F [CH-5126766] | EC50 (B-Raf [1]): 10 µM
4 | inactive | – | – | C[C@@H](Oc1cc(-c2cnn(C3CCNCC3)c2)cnc1N)c1c(Cl)ccc(F)c1Cl [Crizotinib, crizotinib] | –
5 | – | Activity was also observed | – | CCn1c(=O)c(-c2cc(NC(=O)Nc3ccccc3)c(F)cc2Br)cc2cnc(NC)cc21 [DCC-2618] | Thermal stabilization of purified B-Raf protein by differential scanning fluorimetry (purified B-Raf protein): showed thermal stabilization
6 | – | active | clear evidence of target engagement | CC(C)(C)c1nc(-c2cccc(NS(=O)(=O)c3c(F)cccc3F)c2F)c(-c2ccnc(N)n2)s1 [Dabrafenib, dabrafenib] | –
7 | inactive | – | – | O=C(NOCCO)c1ccc2cncn2c1Nc1ccc(I)cc1F [GDC-0623] | EC50 (B-Raf [1]): > 31.6 µM
8 | – | hits | – | OCCn1cc(-c2ccc3c(c2)CC/C3=N\O)c(-c2ccncc2)n1 [GDC-0879] | –
9 | – | – | clear evidence of target engagement | CNc1ncc2cc(-c3cc(NC(=O)NCCC(C)(C)C)c(F)cc3C)c(C)nc2n1 [LY3009120] | –
10 | – | – | clear evidence of target engagement | CCCS(=O)(=O)Nc1ccc(F)c(C(=O)c2c[nH]c3ncc(Cl)cc23)c1F [PLX4720] | –
11 | inactive | – | – | O=C(Nc1ccc2[nH]nc(-c3ccncc3)c2c1)[C@@H]1CCN(CC(=O)N2CCN(c3ccc(-c4ncccn4)cc3)CC2)C1 [SCH772984] | EC50 (B-Raf [1]): > 31.6 µM
12 | – | active | clear evidence of target engagement | CCCS(=O)(=O)Nc1ccc(F)c(C(=O)c2c[nH]c3ncc(-c4ccc(Cl)cc4)cc23)c1F [Vemurafenib, vemurafenib] | –
13 | – | showed activity | – | Cc1ccc(C(=O)Nc2ccc(CN3CCN(C)CC3)c(C(F)(F)F)c2)cc1C#Cc1cnc2cccnn12 [ponatinib] | –
